Measured values published in ChEMBL document CHEMBL5137100, “N-Alkyl-2-Quinolonopyrones Demonstrate Antimicrobial Activity against ESKAPE Pathogens Including Staphylococcus aureus” (2022).
In brackets after ≈: the same amount, converted by molar mass.

How the values were obtained:
Type in all cases: functional
Details in all cases: time 18-20 hrs
[1] = test system: Staphylococcus aureus; assay: Antibacterial activity against methicillin-sensitive Staphylococcus aureus GP-001 ATCC 25923 assessed as reduction in bacterial growth in CAMHB incubated for 18 to 20 hrs by broth dilution method
[2] = test system: Staphylococcus aureus; assay: Antibacterial activity against methicillin-resistant Staphylococcus aureus GP-020 ATCC 43300 assessed as reduction in bacterial growth in CAMHB incubated for 18 to 20 hrs by broth dilution method
[3] = test system: Staphylococcus aureus; assay: Antibacterial activity against methicillin-resistant Staphylococcus aureus GP-021 ATCC 33591 assessed as reduction in bacterial growth in CAMHB incubated for 18 to 20 hrs by broth dilution method
[4] = test system: Enterococcus sp.; assay: Antibacterial activity against vancomycin resistant Enterococcus sp. GP-026 ATCC 700221 assessed as reduction in bacterial growth in CAMHB incubated for 18 to 20 hrs by broth dilution method
[5] = test system: Staphylococcus aureus; assay: Antibacterial activity against daptomycin and methicillin resistant Staphylococcus aureus GP-036 assessed as reduction in bacterial growth in CAMHB incubated for 18 to 20 hrs by broth dilution method
[6] = test system: Staphylococcus epidermidis; assay: Antibacterial activity against Staphylococcus epidermidis GP-017 ATCC 12228 assessed as reduction in bacterial growth in CAMHB incubated for 18 to 20 hrs by broth dilution method
[7] = test system: Staphylococcus epidermidis; assay: Antibacterial activity against Staphylococcus epidermidis GP-033 NRS 60 assessed as reduction in bacterial growth in CAMHB incubated for 18 to 20 hrs by broth dilution method
[8] = test system: Enterococcus sp.; assay: Antibacterial activity against Enterococcus sp. GP-024 ATCC 35667 assessed as reduction in bacterial growth in CAMHB incubated for 18 to 20 hrs by broth dilution method
[9] = test system: Staphylococcus aureus; assay: Antibacterial activity against vancomycin intermediate and methicillin resistant Staphylococcus aureus GP-035 ATCC 700699 assessed as reduction in bacterial growth in CAMHB incubated for 18 to 20 hrs by broth dilution method

CCCCCCCn1c(=O)c2c(O)cc(=O)oc2c2cc(CCCCCC)ccc21
MIC80 [1]: 256 µg/mL (≈ 622 µM) | MIC80 [2]: 256 µg/mL (≈ 622 µM) | MIC80 [3]: > 256 µg/mL

CCCCCCCCCn1c(=O)c2c(O)cc(=O)oc2c2ccccc21
MIC80 [1]: 4 µg/mL (≈ 11.3 µM) | MIC80 [4]: 4 µg/mL (≈ 11.3 µM) | MIC80 [2]: 2 µg/mL (≈ 5.63 µM) | MIC80 [5]: 1 µg/mL (≈ 2.81 µM) | MIC80 [6]: 2 µg/mL (≈ 5.63 µM) | MIC80 [7]: 2 µg/mL (≈ 5.63 µM) | MIC80 [3]: 2 µg/mL (≈ 5.63 µM) | MIC80 [8]: > 4 µg/mL | MIC80 [9]: 2 µg/mL (≈ 5.63 µM)

CCCCCCCn1c(=O)c2c(O)cc(=O)oc2c2cc(Cl)ccc21
MIC80 [1]: 8 µg/mL (≈ 22.1 µM) | MIC80 [4]: 64 µg/mL (≈ 177 µM) | MIC80 [2]: 1 µg/mL (≈ 2.76 µM) | MIC80 [5]: 1 µg/mL (≈ 2.76 µM) | MIC80 [6]: 1 µg/mL (≈ 2.76 µM) | MIC80 [7]: 8 µg/mL (≈ 22.1 µM) | MIC80 [3]: > 128 µg/mL | MIC80 [8]: > 128 µg/mL | MIC80 [9]: 128 µg/mL (≈ 354 µM)

CCCCCCCn1c(=O)c2c(O)cc(=O)oc2c2cc(C)ccc21
MIC80 [1]: > 128 µg/mL | MIC80 [4]: 32 µg/mL (≈ 93.7 µM) | MIC80 [2]: 1 µg/mL (≈ 2.93 µM) | MIC80 [5]: > 128 µg/mL | MIC80 [6]: 16 µg/mL (≈ 46.9 µM) | MIC80 [7]: > 64 µg/mL | MIC80 [3]: 64 µg/mL (≈ 187 µM) | MIC80 [8]: 128 µg/mL (≈ 375 µM) | MIC80 [9]: > 128 µg/mL

CCCCCCCn1c(=O)c2c(O)cc(=O)oc2c2cc(F)ccc21
MIC80 [1]: 8 µg/mL (≈ 23.2 µM) | MIC80 [4]: 32 µg/mL (≈ 92.7 µM) | MIC80 [2]: 2 µg/mL (≈ 5.79 µM) | MIC80 [5]: 2 µg/mL (≈ 5.79 µM) | MIC80 [6]: 4 µg/mL (≈ 11.6 µM) | MIC80 [7]: 8 µg/mL (≈ 23.2 µM) | MIC80 [3]: 4 µg/mL (≈ 11.6 µM) | MIC80 [8]: > 64 µg/mL | MIC80 [9]: 4 µg/mL (≈ 11.6 µM)

CCCCCCCCCCn1c(=O)c2c(O)cc(=O)oc2c2ccccc21
MIC80 [1]: > 64 µg/mL | MIC80 [4]: 0.5 µg/mL (≈ 1.35 µM) | MIC80 [2]: 4 µg/mL (≈ 10.8 µM) | MIC80 [5]: > 64 µg/mL | MIC80 [6]: 4 µg/mL (≈ 10.8 µM) | MIC80 [7]: > 64 µg/mL | MIC80 [3]: > 64 µg/mL | MIC80 [8]: > 64 µg/mL | MIC80 [9]: > 64 µg/mL

CCCCCCCn1c(=O)c2c(O)cc(=O)oc2c2ccccc21
MIC80 [1]: 8 µg/mL (≈ 24.4 µM) | MIC80 [4]: 16 µg/mL (≈ 48.9 µM) | MIC80 [2]: 4 µg/mL (≈ 12.2 µM) | MIC80 [5]: 4 µg/mL (≈ 12.2 µM) | MIC80 [6]: 4 µg/mL (≈ 12.2 µM) | MIC80 [7]: 4 µg/mL (≈ 12.2 µM) | MIC80 [3]: 8 µg/mL (≈ 24.4 µM) | MIC80 [8]: > 128 µg/mL | MIC80 [9]: 8 µg/mL (≈ 24.4 µM)

CCCCCCCn1c(=O)c2c(O)cc(=O)oc2c2cc(OC)ccc21
MIC80 [1]: 8 µg/mL (≈ 22.4 µM) | MIC80 [2]: ≤ 8 µg/mL | MIC80 [3]: ≤ 8 µg/mL

CCCCCCCCn1c(=O)c2c(O)cc(=O)oc2c2ccccc21
MIC80 [1]: 8 µg/mL (≈ 23.4 µM) | MIC80 [4]: 1 µg/mL (≈ 2.93 µM) | MIC80 [2]: 2 µg/mL (≈ 5.86 µM) | MIC80 [5]: 4 µg/mL (≈ 11.7 µM) | MIC80 [6]: 4 µg/mL (≈ 11.7 µM) | MIC80 [7]: 1 µg/mL (≈ 2.93 µM) | MIC80 [3]: 4 µg/mL (≈ 11.7 µM) | MIC80 [8]: > 128 µg/mL | MIC80 [9]: 4 µg/mL (≈ 11.7 µM)

CCCCCCCn1c(=O)c2c(O)cc(=O)oc2c2cc(C(C)(C)C)ccc21
MIC80 [1]: 2 µg/mL (≈ 5.22 µM) | MIC80 [4]: 4 µg/mL (≈ 10.4 µM) | MIC80 [2]: 1 µg/mL (≈ 2.61 µM) | MIC80 [5]: 1 µg/mL (≈ 2.61 µM) | MIC80 [6]: 2 µg/mL (≈ 5.22 µM) | MIC80 [7]: 0.25 µg/mL (≈ 0.652 µM) | MIC80 [3]: 2 µg/mL (≈ 5.22 µM) | MIC80 [8]: > 128 µg/mL | MIC80 [9]: 1 µg/mL (≈ 2.61 µM)

CCCCCCCn1c(=O)c2c(O)cc(=O)oc2c2c(C)cc(C)cc21
MIC80 [1]: > 256 µg/mL | MIC80 [2]: > 256 µg/mL | MIC80 [3]: > 256 µg/mL

CCCCCCn1c(=O)c2c(O)cc(=O)oc2c2ccccc21
MIC80 [1]: 16 µg/mL (≈ 51.1 µM) | MIC80 [4]: 8 µg/mL (≈ 25.5 µM) | MIC80 [2]: 8 µg/mL (≈ 25.5 µM) | MIC80 [5]: 8 µg/mL (≈ 25.5 µM) | MIC80 [6]: 8 µg/mL (≈ 25.5 µM) | MIC80 [7]: 2 µg/mL (≈ 6.38 µM) | MIC80 [3]: 16 µg/mL (≈ 51.1 µM) | MIC80 [8]: > 64 µg/mL | MIC80 [9]: 8 µg/mL (≈ 25.5 µM)
